From article PMC3917480 (Bioorganic & medicinal chemistry, 2013)
Where a SMILES comes first, the peptide text is derived from it. The star is where a group is joined. X3 = O=C(c1ccc(N2CCNCC2)cn1)*; X5 = CC(C)COc1cccc(CC(=O)*)c1; X6 = CCCOc1cccc(CC(=O)*)c1; X2 = CCOc1cccc(CC(=O)*)c1

Columns and labels:
CDK4/cyclin D1 = CDK4/cyclin D1 (Homo sapiens, UniProt P24385); assay: CDK4D1 fluorescence polarization competitive binding assay; conditions: for binding affinity (in words), CDK4D1: FLIP context
Chain of CDK4/cyclin D1 (P24385 whole entry): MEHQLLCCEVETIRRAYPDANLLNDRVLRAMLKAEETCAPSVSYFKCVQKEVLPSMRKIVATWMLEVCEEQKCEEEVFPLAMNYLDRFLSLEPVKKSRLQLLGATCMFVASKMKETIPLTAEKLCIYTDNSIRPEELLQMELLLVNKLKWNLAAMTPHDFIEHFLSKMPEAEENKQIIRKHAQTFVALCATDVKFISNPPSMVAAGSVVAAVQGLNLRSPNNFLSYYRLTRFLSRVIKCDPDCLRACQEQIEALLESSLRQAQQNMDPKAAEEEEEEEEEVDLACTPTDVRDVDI
Chain of CDK4/cyclin D1 (P11802 whole entry partner): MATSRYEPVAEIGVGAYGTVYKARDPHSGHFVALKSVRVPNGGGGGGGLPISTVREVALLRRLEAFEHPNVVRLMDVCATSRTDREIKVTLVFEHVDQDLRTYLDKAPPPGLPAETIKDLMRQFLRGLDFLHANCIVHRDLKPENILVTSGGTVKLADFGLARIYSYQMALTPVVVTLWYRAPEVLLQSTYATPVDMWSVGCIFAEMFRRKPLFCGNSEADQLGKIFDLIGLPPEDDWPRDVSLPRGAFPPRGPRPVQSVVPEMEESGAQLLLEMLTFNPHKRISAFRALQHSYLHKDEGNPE

CDK2/cyclin A = CDK2/cyclin A (Homo sapiens, UniProt P20248); assay: CDK2A2 fluorescence polarization competitive binding assay; conditions: FLIP context

Structure (SMILES)	binding affinity (in words), CDK4D1 (CDK4/cyclin D1)	binding affinity (in words), CDK2A2 (CDK2/cyclin A)	increased potency relative to 525 in CDK4D1 (CDK4/cyclin D1; relative to 525)
CCCOc1cccc(CC(=O)N[C@@H](CCCNC(=N)N)C(=O)N[C@@H](CC(C)C)C(=O)N[C@H](C(=O)N[C@@H](Cc2ccccc2)C(N)=O)[C@@H](C)CC)c1 [compound 5853] (X6-RLIF-NH2)	None of these analogs in the FLIP context possessed appreciable binding affinity	None of these analogs in the FLIP context possessed appreciable binding affinity	–
CCOc1cccc(CC(=O)N[C@@H](CCCNC(=N)N)C(=O)N[C@@H](CC(C)C)C(=O)N[C@H](C(=O)N[C@@H](Cc2ccccc2)C(N)=O)[C@@H](C)CC)c1 [compound 5854] (X2-RLIF-NH2)	None of these analogs in the FLIP context possessed appreciable binding affinity	None of these analogs in the FLIP context possessed appreciable binding affinity	–
CC[C@H](C)[C@H](NC(=O)[C@H](CC(C)C)NC(=O)[C@H](CCCNC(=N)N)NC(=O)Cc1cccc(OCC(C)C)c1)C(=O)N[C@@H](Cc1ccccc1)C(N)=O [compound 5855] (X5-RLIF-NH2)	None of these analogs in the FLIP context possessed appreciable binding affinity	None of these analogs in the FLIP context possessed appreciable binding affinity	–
CC[C@H](C)[C@H](NC(=O)[C@H](CC(C)C)NC(=O)[C@H](CCCNC(=N)N)NC(=O)c1ccc(N2CCNCC2)cn1)C(=O)N[C@@H](Cc1ccccc1)C(N)=O [compound 5856] (X3-RLIF-NH2)	–	–	2 fold
